The values below come from patent US5646148A, “HIV protease inhibitors useful for the treatment of AIDS” (Merck & Co., Inc., priority 1995, dated 1997).

For experiment [1], the system named is HIV-1. In words: Cell spread assay: inhibition of the spread of HIV in cell culture (MT-4 T-lymphoid cells, p24). The experiment is classed as cell-based. Conditions: Human immunodeficiency virus 1, 72 h, MT-4 T-lymphoid cells infected with HIV-1 (wild-type), 24 h preincubation, then 3 additional days with inhibitor, read-out: CIC95, inhibitor concentration which reduced the spread of infection by at least 95%. The protocol:
Inhibition of the spread of HIV in cell culture was measured according to Nunberg, J. H. et al., J. Virol. 65, 4887 (1991). In this assay, MT-4 T-lymphoid cells were infected with HIV-1 (wild-type, unless otherwise indicated) by using a predetermined inoculum, and cultures were incubated for 24 h. At this time, ≤1% of the cells were positive by indirect immunofluorescence. Cells were then extensively washed and distributed into 96-well culture dishes. Serial twofold dilutions of inhibitor were added to the wells, and cultures were continued for 3 additional days. At 4 days postinfection, 100% of the cells in control cultures were infected. HIV-1 p24 accumulation was directly correlated with virus spread. The cell culture inhibitory concentration was defined as the inhibitor concentration in nanomoles/liter which reduced the spread of infection by at least 95%, or CIC95. The CIC95 for compound A is 25 nM.
INHIBITION OF VIRUS SPREAD
A. Preparation of HIV-infected MT-4 cell Suspension. […]
The concentration of HIV p24 antigen is measured by an enzyme immunoassay, described as follows. Aliquots of p24 antigen to be measured are added to microwells coated with a monoclonal antibody specific for HIV core antigen. […]

Experiment [2] concerns the target T1, HIV protease (Human immunodeficiency virus type 1 group M subtype B, UniProt P04585).
T1 construct: the protease expressed in Eschericia coli; made in house; host or cells: Escherichia coli
In words: Assay for Inhibition of Microbial Expressed HIV Protease. The experiment is classed as biochemical. Conditions: protease expressed in Eschericia coli; peptide substrate Val-Ser-Gln-Asn-(betanapthyl)Ala-Pro-Ile-Val; 50 mM Na acetate, pH 5.5, 30° C., 1 hour; HPLC. Here is the method:
Inhibition studies of the reaction of the protease expressed in Eschericia coli with a peptide substrate [Val-Ser-Gln-Asn-(betanapthyl)Ala-Pro-Ile-Val, 0.5 mg/mL at the time the reaction is initiated] were in 50 mM Na acetate, pH 5.5, at 30° C. for 1 hour. Various concentrations of inhibitor in 1.0 μl DMSO were added to 25 μl of the peptide solution in water. The reaction is initiated by the addition of 15 μl of 0.33 nM protease (0.11 ng) in a solution of 0.133M Na acetate pH 5.5 and 0.1% bovine serum albumin. The reaction was quenched with 160 μl of 5% phosphoric acid. Products of the reaction were separated by HPLC (VYDAC wide pore 5 cm C-18 reverse phase, acetonitrile gradient, 0.1% phosphoric acid). The extent of inhibition of the reaction was determined from the peak heights of the products.

As for `CC(C)(C)NC(=O)C1CN(Cc2cnc3occc3c2)CCN1CC(O)CC(Cc1ccccc1)C(=O)NC1c2ccccc2CC1O` [Compound A, N-(2(R)-hydroxy-1(S)-indanyl)-2(R)-phenylmethyl-4(S)-hydroxy-5-(1-(4-(3-furo[2,3-b]pyridylmethyl)-2(S)-N'-(t-butylcarboxamido)-piperazinyl))pentaneamide], the IC95 in experiment [1] came out at 25 nM. Moreover, the 50% inhibitory concentration (IC50) in experiment [2] was approximately 0.27 nM.
